From ChEMBL document CHEMBL1153151, “Novel P2-P4 macrocyclic inhibitors of HCV NS3/4A protease by P3 succinamide fragment depeptidization strategy” (Bioorg Med Chem Lett, 2010)

Experiments:
Rattus norvegicus [1] = assay: (§1) Cmax in Wistar rat at 4 mg/kg, po; type: ADME, organism-based; parameters: dose 4 mg/kg, route oral; settings: in vivo, BLD = below limit of detection
[2] = Drug level in Wistar rat liver at 4 mg/kg, po after 4 hrs; type: ADME, organism-based; parameters: dose 4 mg/kg, route oral; settings: read-out: AUC
Hepatitis C virus = assay: Antiviral activity against HCV 1b infected in Huh7 cells assessed as inhibition viral subgenomic replication by luciferase based replicon assay; type: functional, organism-based, Hepacivirus hominis; settings: genotype 1b, Huh-7
[3] = Inhibition of HCV NS3/4A protease; parameters: species or system Hepacivirus hominis
[4] = as §1; type: ADME, organism-based; parameters: dose 4 mg/kg, route oral; settings: Wistar, in vivo
Rattus norvegicus [5] = assay: AUC (0 to infinity) in Wistar rat plasma at 4 mg/kg, po; type: ADME, organism-based; parameters: time infinity, dose 4 mg/kg, route oral; settings: in vivo

With `C=C[C@@H]1C[C@]1(NC(=O)[C@@H]1C[C@@H]2CN1C(=O)[C@H](C1CCCCC1)CC(=O)NCCCCCc1cc(OC)cc3nc(-c4ccccc4)cc(c13)O2)C(=O)NS(=O)(=O)C1CC1` the Cmax (Rattus norvegicus [1]) was “BLD”, the concentration at 4 h [2] was 100 nM and the EC50 (Hepatitis C virus) was 7 nM. It also gave a Ki [3] of 0.56 nM.
For `C=C[C@@H]1C[C@]1(NC(=O)[C@@H]1C[C@@H]2CN1C(=O)[C@H](C1CCCCC1)CC(=O)N(C(C)C)CCCCCc1cc(OC)cc3nc(-c4ccccc4)cc(c13)O2)C(=O)NS(=O)(=O)C1CC1`, the Cmax [4] was 380 nM, the concentration at 4 h [2] was 9300 nM and the EC50 (Hepatitis C virus) was 37 nM. It also gave a Ki [3] of 0.6 nM and an AUC (Rattus norvegicus [5]) of 1.1 µM·h.
Work on `C=C[C@@H]1C[C@]1(NC(=O)[C@@H]1C[C@@H]2CN1C(=O)[C@H](C1CCCCC1)CC(=O)NCCCCCc1cccc3c1CN(C3)C(=O)O2)C(=O)NS(=O)(=O)C1CC1` yielded a Cmax [4] of 50 nM, a concentration at 4 h [2] of 2200 nM and an EC50 (Hepatitis C virus) of 12 nM. It also gave a Ki [3] of 0.76 nM and an AUC (Rattus norvegicus [5]) of 0.12 µM·h.
With `C=C[C@@H]1C[C@]1(NC(=O)[C@@H]1C[C@@H]2CN1C(=O)[C@H](C(C)C)CC(=O)NCCCCCc1cccc3c1CN(C3)C(=O)O2)C(=O)NS(=O)(=O)C1CC1` the EC50 (Hepatitis C virus) was 100 nM and the Ki [3] was 1.4 nM.
With `C=C[C@@H]1C[C@]1(NC(=O)[C@@H]1C[C@@H]2CN1C(=O)[C@H](C1CCCCC1)CC(=O)N(C(C)C)CCCCCc1cccc3c1CN(C3)C(=O)O2)C(=O)NS(=O)(=O)C1CC1` the Cmax [4] was 90 nM, the concentration at 4 h [2] was 3000 nM and the EC50 (Hepatitis C virus) was 11 nM. For the same molecule, the Ki [3] was 0.61 nM and the AUC (Rattus norvegicus [5]) was 0.09 µM·h.
Work on `C=C[C@@H]1C[C@]1(NC(=O)[C@@H]1C[C@@H]2CN1C(=O)[C@H](C(C)C)CC(=O)N(C(C)C)CCCCCc1cccc3c1CN(C3)C(=O)O2)C(=O)NS(=O)(=O)C1CC1` yielded a Cmax [4] of 80 nM, a concentration at 4 h [2] of 2200 nM and an EC50 (Hepatitis C virus) of 35 nM. The Ki [3] was 0.72 nM and the AUC (Rattus norvegicus [5]) was 0.22 µM·h.
In the case of `C=C[C@@H]1C[C@]1(NC(=O)[C@@H]1C[C@@H]2CN1C(=O)[C@H](C(C)C)NC(=O)OCCC/C=C\c1cccc3c1CN(C3)C(=O)O2)C(=O)NS(=O)(=O)C1CC1`, the EC50 (Hepatitis C virus) is reported as 12 nM and the Ki [3] is reported as 0.06 nM.
